This note sets out measurements from US20240408093A1, “HETEROBIFUNCTIONAL COMPOUNDS AND THEIR USE IN TREATING DISEASE” (HALDA THERAPEUTICS OPCO, INC., priority 2022, published 2024).

What all share (type): cell-based
In assay [1] the target is T1, CCNK (Homo sapiens, UniProt O75909+Q16531+Q9NYV4).
T1 construct: expressed in transfected cells; host or cells: HEK293 LgBiT cells (Promega), lentiviral transduction, puromycin selection
As to the kind of experiment: CCNK HiBiT degradation assay. Particulars: HEK293 LgBiT/CCNK HiBiT cells, 6 hours. On the procedure: HEK293 LgBiT cells (Promega) were cultured in DMEM (Gibco 11995), supplemented with 10% Heat-inactivated FBS (Gibco A38400-01) and 1% Penicillin/Streptomycin (Gibco 15140-122) and 200 μg/ml Hygromycin B (Gibco 10-687-010) at 37° C. with 5% CO2 in a humidified tissue culture incubator. Cells were made stable for CCNK fused to a C-terminal HiBiT peptide by lentiviral transduction, followed by selection with 1 μg/ml Puromycin Dihydrochloride (Thermo A1113803). HEK293 LgBiT/CCNK HiBiT cells were seeded at 3000 cells/well in 384-well, tissue culture-treated white plates (Perkin Elmer 6007680) in 25 μL media lacking selection for 18-24 hours. Plates were spun at 300 g for 30 seconds and stored in the incubator overnight. After 24 hours, compounds were titrated in DMSO and added to media supplemented with Endurazine Substrate (Promega N2570). A 25 ul aliquot of 2× compound/endurazine in media were then added to the 384-well microplate with seeded cells. (Endurazine was used at a final concentration of 0.5×). The plate was spun at 300 g for 30 seconds and stored in the incubator. After 6 hours the plate was read on Envision MultiMode Plate Reader 2105 (Perkin Elmer) to measure luminescence signal. Data were plotted in Prism (Graphpad) and the concentration of compound at which 50% CCNK degradation occurs (DC50) was calculated.

Assay [2] relates to CCNK. As to the kind of experiment: Payload release assay (DC50 readout), CCNK degradation in the presence of recombinant target protein. Particulars: II-series and V-4 (CCNK readout inferred). As for the experimental part:
Exemplary compounds were tested for ability to cause degradation of CCNK or GSPT1 in the presence of recombinant target protein.
HEK293 LgBiT/GSPT1 HiBiT CRISPR Knock-in cells (Promega) were cultured in DMEM (Gibco 11995), supplemented with 10% Heat-inactivated FBS (Gibco A38400-01) and 1% Penicillin/Streptomycin (Gibco 15140-122) and 200 Vg/ml Hygromycin B (Gibco 10-687-010) at 37° C. with 5% CO2 in a humidified tissue culture incubator. HEK293 LgBiT/CCNK HiBiT cells (in-house, described above) were cultured in DMEM (Gibco 11995), supplemented with 10% Heat-inactivated FBS (Gibco A38400-01) and 1% Penicillin/Streptomycin (Gibco 15140-122) 200 Vg/ml Hygromycin B (Gibco 10-687-010), and 1 Vg/ml Puromycin Dihydrochloride (Thermo A1113803) at 37° C. with 5% CO2 in a humidified tissue culture incubator. Cells were seeded (1000 cells/well for HEK293 LgBiT/GSPT1 HiBiT cells or 3000 cells/well for HEK293 LgBiT/CCNK HiBiT cells) 384-well, tissue culture-treated white plates (Perkin Elmer 6007680) in 10 μL media lacking selection for 18-24 hours. Plates were spun at 300 g for 30 seconds and stored in the incubator overnight. After 24 hours, a 5 μL aliquot of recombinant target protein (final concentration of either 5 μM KRAS amino acids 1-169, C51S, C80L, C118S, G12C or 3 μM EGFR amino acids 696-1022 or 3 μM EGFR amino acids 696-1022, T790M, L858R) was added to wells, followed immediately by a 5 μL aliquot of 4× compound-containing medium supplemented with Endurazine Substrate (Promega N2570) was added in each well, at a final top concentration of 10 μM test compound and 0.5× Endurazine, with 4-fold dilutions, using DMSO alone as a negative control. Plates were then spun at 300×g for 3 minutes again and cultured at 37° C. with 5% CO2. After 6 hours the plate was read on Envision MultiMode Plate Reader 2105 (Perkin Elmer) to measure luminescence signal. Data was normalized to DMSO treated cell wells. A four-parameter non-linear regression curve fit was applied to dose-response data in Prism to determine the half maximal growth inhibitory concentration (GI50) of each compound.

The target in assay [3] is T2, EGFR T790M/L858R kinase domain (Homo sapiens, UniProt P00533, L858R/T790M).
T2 construct: EGFR (amino acids 696-1022, T790M, L858R); expressed in transfected cells; host or cells: HEK293, lentiviral transduction, puromycin selection
T2 sequence (P00533 696-1022 T790M/L858R): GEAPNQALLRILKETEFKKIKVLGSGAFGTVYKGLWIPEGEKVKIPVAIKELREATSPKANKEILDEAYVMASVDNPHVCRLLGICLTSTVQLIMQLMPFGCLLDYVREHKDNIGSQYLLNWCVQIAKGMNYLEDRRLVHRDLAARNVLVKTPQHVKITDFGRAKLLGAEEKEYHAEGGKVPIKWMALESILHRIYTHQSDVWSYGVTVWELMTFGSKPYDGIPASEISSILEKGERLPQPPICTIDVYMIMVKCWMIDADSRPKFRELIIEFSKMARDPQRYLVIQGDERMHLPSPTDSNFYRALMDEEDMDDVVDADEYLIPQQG
As to the kind of experiment: EGFR cellular target engagement assay (HEK293 cells stable for EGFR T790M, L858R). The note with it: 6 hours, read-out: TE50 (the source's name). On the procedure: HEK293 cells were cultured in DMEM (Gibco 11995), supplemented with 10% Heat-inactivated FBS (Gibco A38400-01) and 1% Penicillin/Streptomycin (Gibco 15140-122) at 37° C. with 5% CO2 in a humidified tissue culture incubator. Cells were made stable for EGFR (amino acids 696-1022, T790M, L858R) by lentiviral transduction, followed by selection with 1 μg/ml Puromycin Dihydrochloride (Thermo A1113803). Cells were seeded at 30,000 cells/ml in 0.1 ml of complete media in Poly-D-lysine-treated 96-well plates and incubated overnight. Cells were treated with increasing concentrations of compound and let incubate at 37C and 5% CO2 for 6 hours, after which media was aspirated, washed with 1×PBS and cells were lysed in RIPA Lysis and Extraction Buffer (Thermo 89901) supplemented with 5 mM MgCl2, Protease and Phosphatase inhibitor cocktail (Thermo 1861281), and Universal Nuclease (Thermo 88700). Plates with RIPA were shaken at 4° C. at 600 rpm for 15 min. After shaking samples, they were collected and spun down at 21,000 g for 15 min at 4° C. Following centrifugation, […] of lysate was added to Laemmli Sample Buffer (Bio-Rad 1610747) plus 10% beta-mercaptoethanol, boiled for 15 minutes at 65° C. and loaded onto 4-20% Mini-PROTEAN TGX™ Precast Protein Gels (Bio-Rad). Protein was transferred to a nitrocellulose membrane (Thermo LC2000) using the iBlot 2 Dry Blotting System (Thermo). After transfer, membranes were washed in 1× TBST (Bioland Scientific LLC TBST0103) 3× for 5 min. Following the wash, blocking buffer (Rockland MB-070) was added for 1 hour at room temperature. Primary antibodies against EGFR (Cell Signaling Technology 3197) and actin (Cell Signaling Technology 3700S) were added overnight at 4° C. Membranes were then washed again 3× for 5 min in 1× TBST. Secondary antibodies (LI-COR 926-68072 and 926-68073) were added and shaken for 1 hr at room temperature. Membranes were then washed 3× for 5 min in 1×TBST and developed. Membranes were placed on an Odyssey imager (LI-COR).

The structures appear in SMILES notation. Where two headings read alike, the source gives them in different places. A value given as a limit tells only on which side of the number the result lay.

Broadly, the DC50 is the midpoint of the concentration-degradation curve.

T1 sequence (O75909 whole entry, species assumed): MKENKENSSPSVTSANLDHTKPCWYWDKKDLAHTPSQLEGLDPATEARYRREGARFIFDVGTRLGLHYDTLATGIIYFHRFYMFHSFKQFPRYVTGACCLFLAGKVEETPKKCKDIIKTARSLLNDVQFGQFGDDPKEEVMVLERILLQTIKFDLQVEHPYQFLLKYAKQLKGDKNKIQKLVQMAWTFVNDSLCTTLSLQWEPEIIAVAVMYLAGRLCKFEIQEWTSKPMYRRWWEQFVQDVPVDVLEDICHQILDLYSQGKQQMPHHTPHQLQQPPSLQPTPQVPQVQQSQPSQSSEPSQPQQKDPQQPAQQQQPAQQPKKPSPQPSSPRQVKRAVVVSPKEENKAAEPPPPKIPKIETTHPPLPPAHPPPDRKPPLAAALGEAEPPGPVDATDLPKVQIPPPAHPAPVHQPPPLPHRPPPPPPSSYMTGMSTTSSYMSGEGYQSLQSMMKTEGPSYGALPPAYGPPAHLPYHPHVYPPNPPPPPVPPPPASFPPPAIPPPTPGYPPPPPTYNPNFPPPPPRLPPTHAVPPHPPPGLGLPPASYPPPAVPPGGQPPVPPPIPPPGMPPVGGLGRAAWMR
T1 sequence (Q9NYV4 whole entry, species assumed): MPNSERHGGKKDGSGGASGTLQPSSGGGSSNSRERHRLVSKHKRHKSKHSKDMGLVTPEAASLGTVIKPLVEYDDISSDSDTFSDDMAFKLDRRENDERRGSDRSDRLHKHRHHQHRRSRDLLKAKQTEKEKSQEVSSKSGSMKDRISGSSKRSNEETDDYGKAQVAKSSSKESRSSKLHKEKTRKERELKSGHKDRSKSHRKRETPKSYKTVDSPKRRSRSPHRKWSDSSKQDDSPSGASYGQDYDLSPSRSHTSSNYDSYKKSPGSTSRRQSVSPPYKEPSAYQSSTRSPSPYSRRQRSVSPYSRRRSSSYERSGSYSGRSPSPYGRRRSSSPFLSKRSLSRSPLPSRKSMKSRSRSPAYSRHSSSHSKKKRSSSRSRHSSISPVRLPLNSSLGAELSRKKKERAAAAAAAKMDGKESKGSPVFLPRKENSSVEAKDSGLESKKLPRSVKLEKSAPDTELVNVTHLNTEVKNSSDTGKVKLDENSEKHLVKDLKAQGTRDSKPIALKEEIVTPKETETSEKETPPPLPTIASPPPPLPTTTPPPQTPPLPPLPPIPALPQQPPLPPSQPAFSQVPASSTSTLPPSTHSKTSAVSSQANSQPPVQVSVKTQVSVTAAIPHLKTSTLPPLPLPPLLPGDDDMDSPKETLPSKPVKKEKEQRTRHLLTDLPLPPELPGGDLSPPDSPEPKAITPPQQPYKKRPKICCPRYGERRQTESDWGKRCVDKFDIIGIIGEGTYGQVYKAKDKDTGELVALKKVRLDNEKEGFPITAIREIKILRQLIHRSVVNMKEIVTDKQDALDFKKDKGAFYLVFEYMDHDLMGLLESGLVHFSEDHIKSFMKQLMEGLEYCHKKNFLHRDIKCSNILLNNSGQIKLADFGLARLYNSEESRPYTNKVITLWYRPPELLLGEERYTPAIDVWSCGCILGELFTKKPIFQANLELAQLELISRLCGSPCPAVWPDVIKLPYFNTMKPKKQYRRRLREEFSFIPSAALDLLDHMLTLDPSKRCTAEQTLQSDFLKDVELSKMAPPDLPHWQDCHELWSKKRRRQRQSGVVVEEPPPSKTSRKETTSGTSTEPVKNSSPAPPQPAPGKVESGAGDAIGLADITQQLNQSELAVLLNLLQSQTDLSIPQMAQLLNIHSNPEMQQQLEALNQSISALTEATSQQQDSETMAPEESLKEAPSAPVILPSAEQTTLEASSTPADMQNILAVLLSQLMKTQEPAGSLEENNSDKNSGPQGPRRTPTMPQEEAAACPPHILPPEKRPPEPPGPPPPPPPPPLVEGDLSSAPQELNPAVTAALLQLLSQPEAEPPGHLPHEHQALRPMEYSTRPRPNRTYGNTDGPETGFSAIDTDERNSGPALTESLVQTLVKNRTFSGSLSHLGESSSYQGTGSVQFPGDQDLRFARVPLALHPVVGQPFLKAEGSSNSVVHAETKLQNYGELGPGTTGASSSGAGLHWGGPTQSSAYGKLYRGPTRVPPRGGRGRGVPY
T1 sequence (Q16531 whole entry, species assumed): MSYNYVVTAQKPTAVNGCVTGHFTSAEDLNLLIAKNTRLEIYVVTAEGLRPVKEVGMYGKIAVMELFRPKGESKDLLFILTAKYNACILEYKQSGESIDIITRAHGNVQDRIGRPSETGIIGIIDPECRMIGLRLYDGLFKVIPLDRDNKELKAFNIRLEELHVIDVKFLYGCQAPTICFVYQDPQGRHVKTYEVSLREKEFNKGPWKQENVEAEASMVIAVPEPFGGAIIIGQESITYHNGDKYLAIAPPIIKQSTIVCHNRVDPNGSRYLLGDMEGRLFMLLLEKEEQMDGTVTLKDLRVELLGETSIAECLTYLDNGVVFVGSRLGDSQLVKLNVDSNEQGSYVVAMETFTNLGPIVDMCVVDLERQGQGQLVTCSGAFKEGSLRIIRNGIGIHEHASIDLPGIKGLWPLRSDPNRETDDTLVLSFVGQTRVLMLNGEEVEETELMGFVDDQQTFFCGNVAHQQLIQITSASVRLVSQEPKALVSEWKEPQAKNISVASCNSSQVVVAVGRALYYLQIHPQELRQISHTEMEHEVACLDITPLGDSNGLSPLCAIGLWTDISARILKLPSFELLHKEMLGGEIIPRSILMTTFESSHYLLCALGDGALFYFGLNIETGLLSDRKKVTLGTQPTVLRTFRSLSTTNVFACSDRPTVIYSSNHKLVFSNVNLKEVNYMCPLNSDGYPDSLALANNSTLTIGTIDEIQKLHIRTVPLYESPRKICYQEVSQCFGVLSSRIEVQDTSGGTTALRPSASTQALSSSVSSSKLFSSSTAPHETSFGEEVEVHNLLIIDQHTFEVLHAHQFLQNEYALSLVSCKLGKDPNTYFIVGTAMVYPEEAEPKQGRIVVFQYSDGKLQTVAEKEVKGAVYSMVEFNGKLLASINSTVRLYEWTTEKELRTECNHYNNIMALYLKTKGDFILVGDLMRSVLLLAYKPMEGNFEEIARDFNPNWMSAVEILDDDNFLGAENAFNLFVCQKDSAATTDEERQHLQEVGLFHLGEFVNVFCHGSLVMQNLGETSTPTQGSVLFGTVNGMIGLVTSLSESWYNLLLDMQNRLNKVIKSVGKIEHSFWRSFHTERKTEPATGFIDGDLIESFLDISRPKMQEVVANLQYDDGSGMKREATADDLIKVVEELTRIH

For the molecule `C=C(COC(=O)n1c(CNc2nc(N3CCNCC3)nc3c(Br)cnn23)nc2cc(C)ccc21)C(=O)N1C[C@H](COc2nc(Nc3cnn(C)c3)nc3[nH]cc(Cl)c23)[C@@H](OC)C1` [Compound V-4], the DC50 is less than 250 nM at CCNK [1]; less than 250 nM in the assay on CCNK [2] (0 μM recombinant EGFR T790M L858R, read-out: DC50 at 0 μM EGFR T790M L858R); less than 250 nM with CCNK [2] (0 μM recombinant EGFR WT, read-out: DC50 at 0 μM EGFR WT); less than 250 nM in the assay with CCNK [2] (3 μM recombinant EGFR T790M L858R, read-out: DC50 at 3 μM EGFR T790M L858R); less than 250 nM in the assay with CCNK [2] (3 μM recombinant EGFR WT, read-out: DC50 at 3 μM EGFR WT). Besides, in assay [3], the EC50 is more than 10000 nM.
